Consider 2 compounds from PMC4389225, “Triaminopyrimidine is a fast-killing and long-acting antimalarial clinical candidate” (Nature Communications, 2015).

Structures are written as SMILES. In brackets after ≈: the same amount, converted by molar mass.

The nature of data set [1]: Solubility.
For data set [2], the system named is asexual blood stage of Pf. Nature of the data set: Pf asexual blood stage potency (Pf IC50). In kind it is cell-based, Plasmodium falciparum. Particulars: for IC50: Plasmodium falciparum. From the text: The TAPs series emerged from a high-throughput screen (HTS) of 500,000 compounds from the AstraZeneca corporate library against the asexual blood stage of Pf using a high-content image-based approach. The procedure for synthesis of compounds 1-6, 10, 11 using a scheme similar to Fig. 1 is provided in Supplementary Note 1. The initial hit provided multiple diversification points for a robust lead optimization campaign. […] Compounds with 2-pyridyl modification at the 2-amino position of pyrimidine core improved potency and solubility at the cost of potent activity against hERG and acetylcholine esterase (AChE; compounds 3-6; Table 1). […] The observed hERG and AChE selectivity improvement with 7 could be attributed to the polar nature of the pyrazole group and its role in reducing the pKa of the core pyrimidine ring. […] To assess the potential for cross-resistance, representative TAPs were screened against a panel of clinical isolates and in vitro-generated mutant strains displaying varying mechanisms of resistance to antimalarial agents currently in use and under development, respectively, (Supplementary Tables 1–3).

In data set [3] the target is T1, hERG (Homo sapiens, UniProt Q12809).
T1 construct: expressed in transfected cells; host or cells: CHO cells
Nature of the data set: electrophysiology-based hERG assay using IonWorks HT (CHO cells). It counts as cell-based. The settings on record: hERG IC50. How it is done: hERG IC50 was determined in an electrophysiology-based hERG assay using IonWorks HT (CHO cells) as described earlier.
On the technique in general: The hERG channel carries a current that helps repolarise heart muscle cells.

The subject of data set [4] is Dd2. Nature of the data set: [3H]-hypoxanthine incorporation assay, Dd2. In kind it is cell-based, Plasmodium falciparum. The settings on record: Plasmodium falciparum, DD2. The method, then: 9 and 12 were tested for their antiplasmodial activity against a panel of Pf strains known to harbour mutations conferring resistance to novel agents under clinical development. Parasite growth inhibition is measured using the [3H]-hypoxanthine incorporation assay. IC50s are established for each strain (n ≥2) and compared to the IC50 of Dd2 (standard pan-resistant

Data set [5] relates to Cpd 4 Unpublished Target. Nature of the data set: [3H]-hypoxanthine incorporation assay, Cpd 4 Unpublished Target resistant. It counts as cell-based. Particulars: Plasmodium falciparum. The method, then: (§1) Supplementary Table 3: Compound 9 and 12 retain their activity against Pf strains harbouring mutations to novel antimalarial agents in clinical development. Compound 9 and 12 were tested for their antiplasmodial activity against a panel of Pf strains known to harbour mutations conferring resistance to novel agents under clinical development. Parasite growth inhibition is measured using the [3H]-hypoxanthine incorporation assay. IC50s are established for each strain (n ≥2) and compared to the IC50 of Dd2 (standard pan-resistant […]

Data set [6] concerns Dd2 DHODH DSM265. Nature of the data set: [3H]-hypoxanthine incorporation assay, Dd2 DHODH DSM265 resistant. In kind it is cell-based. The settings on record: Plasmodium falciparum. The method, then:
as §1

Data set [7] has as its system Dd2 PI4K Cpd 1. Nature of the data set: [3H]-hypoxanthine incorporation assay, Dd2 PI4K Cpd 1 resistant. It counts as cell-based. The settings on record: Plasmodium falciparum. The method, then: as §1
Data set [8] deals with PfATP4 Cpd 3. Nature of the data set: [3H]-hypoxanthine incorporation assay, PfATP4 Cpd 3 resistant. In kind it is cell-based. The settings on record: Plasmodium falciparum. The method, then:
as §1

In data set [9] the test system is Dd2 bc-1 ELQ-300. Nature of the data set: [3H]-hypoxanthine incorporation assay, Dd2 bc-1 ELQ-300 resistant. It counts as cell-based, Plasmodium falciparum. Particulars: Plasmodium falciparum, DD2. The method, then:
as §1

The subject of data set [10] is Pf3D7^0087/N9. Nature of the data set: animal or person. In kind it is in vivo, Plasmodium falciparum. From the text:
All animal studies were ethically reviewed and carried out in accordance with European Directive 86/609/EEC and the GSK Policy on the Care, Welfare and Treatment of Animals. During this experiment, female mice were used from the batch NSGJ 01/1 (The Jackson Laboratory, USA). The therapeutic efficacy of compound 12 against Pf3D7^0087/N9 was studied using a ‘4-day test’ reported earlier. Briefly, NODscidIL2Rγ^null mice engrafted with human erythrocytes were infected with 20 × 10^6 Pf-infected erythrocytes. Infections were performed by i.v. inoculation. All mice were randomly assigned to their corresponding treatment. The treatment started at day 3 and finished at day 6 after infection. The compound was administered orally as a suspension in 0.5% w/v hydroxypropyl methylcellulose (HPMC) with 0.1% v/v Tween 80, using an oral gavage at a maximum dose volume of 20 ml kg^−1. Vehicle alone was administered in untreated mice. In all cases, parasitemia was assessed in samples from peripheral blood obtained at days 3–7 after infection. A qualitative analysis of the effect of treatment on Pf3D7^0087/N9 was assessed by microscopy and flow cytometry. Fresh samples of peripheral blood from Pf-infected mice were stained with TER-119-Phycoerythrine (marker of murine erythrocytes) and SYTO-16 (nucleic acid dye) and then analysed by flow cytometry (FACS Calibur, BD). Microscopy analysis was performed with Giemsa-stained blood smears from samples taken at days 5 and 7 (48 and 96 h after starting treatment, respectively).
PK-PD model for the metabolite (compound 9) alone. Pharmacokinetic data from the Pf/SCID model was linked to efficacy using the following equation5.
Where P [log (total no. of parasites / mouse)], Kgro (growth rate constant), Pmax (log (maximum no. of parasites / mouse)), Kkill (maximum kill rate constant), H (Hill slope), EC50 (concentration required for achieving half maximal kill rate) and Ce (concentration of the drug in the effect compartment). Percent parasitemia values were converted into total number of parasites in mouse blood assuming […] (9.23 log10) RBCs per mouse. The lower limit of quantitation for % parasitemia was 0.01% or 5.23 log10. Effect compartment was used for modelling the delay observed in efficacy at a lower dose. […]

Data set [11] deals with Pf SB1. Nature of the data set: microbe, parasite or virus in culture. It counts as cell-based. Particulars: Plasmodium falciparum. From the text: (§2) tested in duplicate from two independent experiments using a SYBR-Green based assay2.
(§3) (1 picture or pasted object on this page, not shown here)

Data set [12] deals with Pf W2. Nature of the data set: microbe, parasite or virus in culture. It counts as cell-based. Particulars: Plasmodium falciparum.
Description: as §2, §3

For data set [13], the system named is Pf 7G8. Nature of the data set: microbe, parasite or virus in culture. Particulars: Plasmodium falciparum. In kind it is cell-based.
Description: as §2, §3

For data set [14], the system named is Pf DD2. Nature of the data set: microbe, parasite or virus in culture. The settings on record: Plasmodium falciparum. In kind it is cell-based.
Description: as §2, §3

Data set [15] concerns Pf K1. Nature of the data set: microbe, parasite or virus in culture. Particulars: Plasmodium falciparum. It counts as cell-based.
Description: as §2, §3

Data set [16] has as its system Pf NF54. Nature of the data set: microbe, parasite or virus in culture. It counts as cell-based. Particulars: Plasmodium falciparum.
Description: as §2, §3

Data set [17] relates to PfATP4 Cpd 2. Nature of the data set: [3H]-hypoxanthine incorporation assay, PfATP4 Cpd 2 resistant. In kind it is cell-based. The settings on record: Plasmodium falciparum. The method, then:
as §1

Data set [18] concerns Dd2 PfATP4 NITD609. Nature of the data set: [3H]-hypoxanthine incorporation assay, Dd2 PfATP4 NITD609 resistant. In kind it is cell-based. The settings on record: Plasmodium falciparum. The method, then:
as §1

Data set [19] is described as follows: PK in the blood of infected Pf/SCID mice. In kind it is in vivo, mouse. The settings on record: for CL/F: SCID, mouse, whole blood. The method, then: Peripheral blood samples (25 μl) were taken at different times (0.25, 0.5, 1, 2, 4, 6, 8 and 23 h), mixed with 25 μl of H2O Mili-Q and immediately frozen on dry ice. The frozen samples were stored at −80 °C until analysis. Vehicle-treated mice experienced the same blood-sampling regimen. Blood samples were processed by liquid–liquid extraction by mixing 10 μl diluted blood with 180 μl AcN:MeOH (80:20; v-v) mixture. Quantitative analysis by Liquid chromatography-tandem mass spectrometry (LC-MS/MS) was performed using UPLC (Waters) and Sciex API4000. The lower limit of quantification in this assay was 0.005 μg ml^−1.

Setting [20] is: 10 mg kg-1, one compartment POPK model.
Where [21] appears, read: 30 mg kg-1, one compartment POPK model.

T1 sequence (Q12809 whole entry): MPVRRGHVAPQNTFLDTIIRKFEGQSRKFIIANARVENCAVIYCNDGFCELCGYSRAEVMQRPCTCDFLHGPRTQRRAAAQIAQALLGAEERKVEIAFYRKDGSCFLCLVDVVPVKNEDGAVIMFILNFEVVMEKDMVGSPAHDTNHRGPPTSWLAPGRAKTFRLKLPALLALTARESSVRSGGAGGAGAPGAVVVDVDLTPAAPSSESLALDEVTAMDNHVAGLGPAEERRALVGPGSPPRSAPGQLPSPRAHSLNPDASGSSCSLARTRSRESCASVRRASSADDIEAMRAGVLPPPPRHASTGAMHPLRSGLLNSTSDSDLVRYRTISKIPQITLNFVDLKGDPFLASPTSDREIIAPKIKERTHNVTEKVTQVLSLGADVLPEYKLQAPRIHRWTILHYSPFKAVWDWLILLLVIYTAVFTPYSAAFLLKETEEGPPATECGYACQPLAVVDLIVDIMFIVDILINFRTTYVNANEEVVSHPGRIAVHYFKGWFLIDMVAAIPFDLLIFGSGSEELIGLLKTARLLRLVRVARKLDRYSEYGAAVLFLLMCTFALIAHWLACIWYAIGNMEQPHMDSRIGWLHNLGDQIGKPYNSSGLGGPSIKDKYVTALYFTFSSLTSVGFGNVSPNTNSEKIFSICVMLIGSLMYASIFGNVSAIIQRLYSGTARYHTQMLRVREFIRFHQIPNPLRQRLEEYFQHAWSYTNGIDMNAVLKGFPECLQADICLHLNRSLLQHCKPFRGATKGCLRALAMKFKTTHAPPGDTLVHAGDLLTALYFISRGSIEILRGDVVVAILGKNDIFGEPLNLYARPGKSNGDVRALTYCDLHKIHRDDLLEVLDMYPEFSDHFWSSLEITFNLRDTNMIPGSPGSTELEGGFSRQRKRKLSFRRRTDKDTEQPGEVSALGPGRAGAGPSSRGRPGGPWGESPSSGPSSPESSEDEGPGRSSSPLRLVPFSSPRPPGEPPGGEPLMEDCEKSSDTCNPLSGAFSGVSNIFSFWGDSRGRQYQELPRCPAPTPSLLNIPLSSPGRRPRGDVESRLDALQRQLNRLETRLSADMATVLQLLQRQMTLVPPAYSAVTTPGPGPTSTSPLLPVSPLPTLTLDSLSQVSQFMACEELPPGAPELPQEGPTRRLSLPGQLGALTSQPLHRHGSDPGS

Turning to `CCc1ccc(Nc2ncc(N3CCN(C)CC3)c(N3CCCC3)n2)cc1` [compound 1], the solubility in data set [1] turned out to be 10 µM (≈ 3.67 µg/mL). Besides, the IC50 in data set [2] was 150 nM; in data set [3], 3700 nM.

In the case of `Cc1nc(Nc2ncc(N3CCNC(C)C3)c(Nc3cc(C)n(C)n3)n2)cc(C2CC2)c1F.Cl.Cl` (stereo not shown) [compound 9, N2-(4-cyclopropyl-5-fluoro-6-methylpyridin-2-yl)-N4-(1,5-dimethyl-1H-pyrazol-3-yl)-5-(3-methylpiperazin-1-yl)pyrimidine-2,4-diamine dihydrochloride], the IC50 in [4] worked out at 6 nM; in [2], 14 nM; in data set [5], 9.4 nM; in data set [6], 9.1 nM; in data set [7], 10 nM; in [8], 11 nM. The IC50 was 10 nM in data set [9]; 25.6 ± 13 nM in data set [11]; 28.1 ± 8 nM in data set [12]; 26.5 ± 5 nM in data set [13]; 19.6 ± 7 nM in data set [14]; 33.8 ± 5 nM in [15]. Besides, the results for the IC50 in [16], in [17] and in [18] were 18.5 ± 5 nM, 11 nM and 8.6 nM, respectively. Also, the “improvement in Pf potency” value in data set [2] (compound 9 relative to compound 7) is recorded as > 10 fold. Besides, in data set [10] (PK-PD model for compound 9 alone), the “Kkill (maximum kill rate constant)” value stood at 0.2 h⁻¹. For the same compound, the EC50 in data set [10] (Plasmodium falciparum, in Mus musculus, read-out: EC50 (blood concentration for half-maximal kill rate)) came out at 309 nM. The Kkillm in [10] (metabolite, Fixed) was 0.2 h⁻¹. The Ka in data set [19] (setting [20]) amounted to 0.29 h⁻¹; in [19] (setting [21]), 0.62 h⁻¹. Moreover, the V/F in data set [19] (setting [21]) was 53 L/kg; in data set [19] (compound 9, 10 mg kg-1, one compartment POPK model) it was 70 L/kg. Further, the values for the CL/F in data set [19] (setting [20]) and in data set [19] (setting [21]) were 122 mL/min/kg and 117 mL/min/kg, respectively. In addition, in [19] (metabolite, Fixed), the CLm came to 1330 mL/min/kg. Further, in data set [19] (metabolite, Fixed), the Ke0m amounted to 0.06 h⁻¹. Further, in data set [19] (metabolite, Fixed), the Vcm is 29 L/kg.

The solubility is the concentration that dissolves in the medium under given conditions. As usually defined, the IC50 is the midpoint of a concentration-inhibition curve. Low values mean greater potency in that assay, high ones weaker potency in that assay. One may read the CL/F as clearance divided by bioavailability, as obtained after extravascular dosing.
